# Measured values as given in patent US9452986B2, “6-heteroaryloxy- or 6-aryloxy-quinoline-2-carboxamides and method of use” (AbbVie Inc., priority 2014, dated 2016).
# pIC50: −log10 of the molar value. Where two headings read alike, the source gives them in different places.
# How the values were obtained:
# [1] = test system: osteoarthritic rats; experiment: Osteoarthritic (OA) pain induced by sodium monoiodoacetate (MIA), hind limb grip force; assay type: in vivo, rat; conditions: for inhibition in vivo at 10 mg/kg / inhibition in vivo at 30 mg/kg: Rattus norvegicus, 480 h, read-out: OA MPE
# Protocol: Osteoarthritic (OA) Pain Induced by Sodium Monoiodoacetate (MIA)
# Pain behavior was assessed by measurement of hind limb grip force (GF) in adult osteoarthritic rats. Male Sprague Dawley rats, obtained from Charles River Laboratories, (Wilmington, Mass.), weighing 150-175 g, were injected in the unilateral knee join with a single intra-articular injection of sodium monoiodoacetate (MIA, 3 mg/rat). All rats were tested at 20 days following MIA injection. A behavioral measure of activity-induced pain was carried out. Measurements of the peak hind limb grip force were conducted by recording the maximum compressive force (CFmax), in grams of force, exerted on a hind limb strain gauge setup, in a commercially available grip force measurement system (Columbus Instruments, Columbus, Ohio).
# During testing, each rat was gently restrained by grasping it around its rib cage and then allowed to grasp the wire mesh frame attached to the strain gauge. The experimenter then moved the animal in a rostral-to-caudal direction until the grip was broken. Each rat was sequentially tested twice at an approximately 2-3 minute interval to obtain a raw mean grip force (CFmax). This raw mean grip force data was in turn converted to a maximum hindlimb cumulative compressive force (CFmax), as the grams of force/kg of body weight, for each animal.
# For evaluating the compound effects, the hind limb grip force was conducted 20 days following the intra-articular injection of MIA. A group of age-matched naïve (not injected with MIA) animals was added as a comparator to the drug-dosed groups. The vehicle control response for each group of MIA-treated animals was defined as the 0% response (0% effect), whereas the naïve control group was defined as the normal response and as 100% effect. The % effect for each dose group was expressed as % return of response to normalcy, compared to the naïve group. A percent maximal possible effect (% MPE) of testing compound was calculated according to the formula: (Treatment CFmax−Vehicle CFmax)/Vehicle CFmax]×100). Higher % effect numbers indicate increased relief from the pain in the model, with 100% indicating a return to the level of response seen in normal (non-osteoarthritic) animals. All experiments evaluating drug effects in this model were conducted in a randomized blinded fashion.
# The animals were housed in Association for Assessment and Accreditation of Laboratory Animal Care (AAALAC) approved facilities at AbbVie Inc. in a temperature-regulated environment under a controlled 12-hour light-dark cycle, with lights on at 6:00 a.m. Food and water were available ad libitum at all times except during testing. All testing was done following procedures outlined in protocols approved by AbbVie Inc.'s Institutional Animal Care and Use Committee.
# [2] = target: recombinant human Nav1.7 (Homo sapiens (Human), UniProt Q15858); experiment: FRET-based membrane potential assay, recombinant human sodium channel Nav1.7; assay type: cell-based
# How it was run: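 Channel activation used veratridine at its EC80, set by a dilution curve each experiment, together with Leiurus scorpion venom, added 3 min after compound. Membrane-potential ratio signals from FLIPR Tetra in HEPES-buffered HBSS were fitted to a four-parameter Hill equation for percent inhibition and IC50.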
# [3] = target: recombinant human Nav1.8 (Homo sapiens (Human), UniProt Q9Y5Y9); experiment: FRET-based membrane potential assay, recombinant human sodium channel Nav1.8; assay type: cell-based
# [4] = OA dose 10 mg/kg, rat, 20 days following MIA injection, hind limb grip force
# [5] = HEK293 cells stably expressing recombinant human Nav1.7, veratridine + scorpion venom depolarization, read-out: FRET-Membrane Potential Nav1.7 IC50
# [6] = HEK293 cells stably expressing recombinant human Nav1.8, veratridine + scorpion venom depolarization
# [7] = OA dose 30 mg/kg, rat, 20 days following MIA injection, hind limb grip force
# [8] = read-out: FRET-Membrane Potential Nav1.7 IC50
# Sequence of recombinant human Nav1.8 (Q9Y5Y9 whole entry): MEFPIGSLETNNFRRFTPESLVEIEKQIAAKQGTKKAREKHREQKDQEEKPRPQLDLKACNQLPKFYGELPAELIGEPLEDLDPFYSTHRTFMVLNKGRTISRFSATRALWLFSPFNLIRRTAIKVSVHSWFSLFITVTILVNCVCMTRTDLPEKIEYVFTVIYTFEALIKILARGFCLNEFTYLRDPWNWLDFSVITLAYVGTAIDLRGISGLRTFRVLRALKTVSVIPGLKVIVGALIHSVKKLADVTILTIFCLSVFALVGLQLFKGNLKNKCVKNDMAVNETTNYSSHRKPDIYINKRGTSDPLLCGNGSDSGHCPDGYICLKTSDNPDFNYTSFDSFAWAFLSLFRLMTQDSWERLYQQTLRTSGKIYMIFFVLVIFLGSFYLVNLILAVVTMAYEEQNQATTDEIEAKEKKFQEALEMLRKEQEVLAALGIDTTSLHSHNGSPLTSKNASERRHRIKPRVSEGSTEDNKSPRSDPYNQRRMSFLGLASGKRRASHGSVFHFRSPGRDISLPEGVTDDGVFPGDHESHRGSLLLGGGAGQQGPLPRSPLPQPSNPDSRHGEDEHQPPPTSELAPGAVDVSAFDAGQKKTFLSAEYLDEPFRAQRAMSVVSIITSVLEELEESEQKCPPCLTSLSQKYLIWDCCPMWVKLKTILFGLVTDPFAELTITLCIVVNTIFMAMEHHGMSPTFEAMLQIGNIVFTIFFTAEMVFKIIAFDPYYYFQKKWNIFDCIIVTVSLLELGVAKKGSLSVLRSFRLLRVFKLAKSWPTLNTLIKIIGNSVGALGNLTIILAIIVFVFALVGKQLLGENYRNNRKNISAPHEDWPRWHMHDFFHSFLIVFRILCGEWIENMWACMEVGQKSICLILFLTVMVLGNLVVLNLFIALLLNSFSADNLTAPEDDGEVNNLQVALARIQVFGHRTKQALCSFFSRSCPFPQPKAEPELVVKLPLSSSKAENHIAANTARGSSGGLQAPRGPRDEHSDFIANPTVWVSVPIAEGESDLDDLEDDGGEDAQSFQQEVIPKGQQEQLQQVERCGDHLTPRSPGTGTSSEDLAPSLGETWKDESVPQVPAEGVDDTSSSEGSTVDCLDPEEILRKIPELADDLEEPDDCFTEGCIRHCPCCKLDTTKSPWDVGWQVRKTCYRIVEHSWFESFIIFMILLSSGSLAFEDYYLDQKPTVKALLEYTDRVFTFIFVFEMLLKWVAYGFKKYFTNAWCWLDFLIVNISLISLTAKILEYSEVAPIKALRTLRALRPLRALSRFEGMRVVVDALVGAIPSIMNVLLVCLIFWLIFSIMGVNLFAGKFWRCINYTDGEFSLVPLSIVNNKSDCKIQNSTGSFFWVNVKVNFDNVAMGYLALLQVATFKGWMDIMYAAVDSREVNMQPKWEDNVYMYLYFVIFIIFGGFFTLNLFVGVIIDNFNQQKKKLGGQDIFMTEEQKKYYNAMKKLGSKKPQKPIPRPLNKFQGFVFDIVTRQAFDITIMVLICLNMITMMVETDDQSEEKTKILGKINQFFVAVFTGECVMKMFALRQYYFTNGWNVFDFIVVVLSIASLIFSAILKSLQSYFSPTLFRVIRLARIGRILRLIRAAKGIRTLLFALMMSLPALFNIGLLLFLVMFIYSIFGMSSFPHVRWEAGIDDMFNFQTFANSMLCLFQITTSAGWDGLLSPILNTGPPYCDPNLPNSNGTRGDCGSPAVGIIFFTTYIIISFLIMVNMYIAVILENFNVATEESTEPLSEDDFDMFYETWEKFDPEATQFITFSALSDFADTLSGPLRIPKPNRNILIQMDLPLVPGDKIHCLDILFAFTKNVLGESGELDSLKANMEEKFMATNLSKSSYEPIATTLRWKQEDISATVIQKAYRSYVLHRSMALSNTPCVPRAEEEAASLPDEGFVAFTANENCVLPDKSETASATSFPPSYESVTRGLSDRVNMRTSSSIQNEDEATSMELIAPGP
# Sequence of recombinant human Nav1.7 (Q15858 whole entry): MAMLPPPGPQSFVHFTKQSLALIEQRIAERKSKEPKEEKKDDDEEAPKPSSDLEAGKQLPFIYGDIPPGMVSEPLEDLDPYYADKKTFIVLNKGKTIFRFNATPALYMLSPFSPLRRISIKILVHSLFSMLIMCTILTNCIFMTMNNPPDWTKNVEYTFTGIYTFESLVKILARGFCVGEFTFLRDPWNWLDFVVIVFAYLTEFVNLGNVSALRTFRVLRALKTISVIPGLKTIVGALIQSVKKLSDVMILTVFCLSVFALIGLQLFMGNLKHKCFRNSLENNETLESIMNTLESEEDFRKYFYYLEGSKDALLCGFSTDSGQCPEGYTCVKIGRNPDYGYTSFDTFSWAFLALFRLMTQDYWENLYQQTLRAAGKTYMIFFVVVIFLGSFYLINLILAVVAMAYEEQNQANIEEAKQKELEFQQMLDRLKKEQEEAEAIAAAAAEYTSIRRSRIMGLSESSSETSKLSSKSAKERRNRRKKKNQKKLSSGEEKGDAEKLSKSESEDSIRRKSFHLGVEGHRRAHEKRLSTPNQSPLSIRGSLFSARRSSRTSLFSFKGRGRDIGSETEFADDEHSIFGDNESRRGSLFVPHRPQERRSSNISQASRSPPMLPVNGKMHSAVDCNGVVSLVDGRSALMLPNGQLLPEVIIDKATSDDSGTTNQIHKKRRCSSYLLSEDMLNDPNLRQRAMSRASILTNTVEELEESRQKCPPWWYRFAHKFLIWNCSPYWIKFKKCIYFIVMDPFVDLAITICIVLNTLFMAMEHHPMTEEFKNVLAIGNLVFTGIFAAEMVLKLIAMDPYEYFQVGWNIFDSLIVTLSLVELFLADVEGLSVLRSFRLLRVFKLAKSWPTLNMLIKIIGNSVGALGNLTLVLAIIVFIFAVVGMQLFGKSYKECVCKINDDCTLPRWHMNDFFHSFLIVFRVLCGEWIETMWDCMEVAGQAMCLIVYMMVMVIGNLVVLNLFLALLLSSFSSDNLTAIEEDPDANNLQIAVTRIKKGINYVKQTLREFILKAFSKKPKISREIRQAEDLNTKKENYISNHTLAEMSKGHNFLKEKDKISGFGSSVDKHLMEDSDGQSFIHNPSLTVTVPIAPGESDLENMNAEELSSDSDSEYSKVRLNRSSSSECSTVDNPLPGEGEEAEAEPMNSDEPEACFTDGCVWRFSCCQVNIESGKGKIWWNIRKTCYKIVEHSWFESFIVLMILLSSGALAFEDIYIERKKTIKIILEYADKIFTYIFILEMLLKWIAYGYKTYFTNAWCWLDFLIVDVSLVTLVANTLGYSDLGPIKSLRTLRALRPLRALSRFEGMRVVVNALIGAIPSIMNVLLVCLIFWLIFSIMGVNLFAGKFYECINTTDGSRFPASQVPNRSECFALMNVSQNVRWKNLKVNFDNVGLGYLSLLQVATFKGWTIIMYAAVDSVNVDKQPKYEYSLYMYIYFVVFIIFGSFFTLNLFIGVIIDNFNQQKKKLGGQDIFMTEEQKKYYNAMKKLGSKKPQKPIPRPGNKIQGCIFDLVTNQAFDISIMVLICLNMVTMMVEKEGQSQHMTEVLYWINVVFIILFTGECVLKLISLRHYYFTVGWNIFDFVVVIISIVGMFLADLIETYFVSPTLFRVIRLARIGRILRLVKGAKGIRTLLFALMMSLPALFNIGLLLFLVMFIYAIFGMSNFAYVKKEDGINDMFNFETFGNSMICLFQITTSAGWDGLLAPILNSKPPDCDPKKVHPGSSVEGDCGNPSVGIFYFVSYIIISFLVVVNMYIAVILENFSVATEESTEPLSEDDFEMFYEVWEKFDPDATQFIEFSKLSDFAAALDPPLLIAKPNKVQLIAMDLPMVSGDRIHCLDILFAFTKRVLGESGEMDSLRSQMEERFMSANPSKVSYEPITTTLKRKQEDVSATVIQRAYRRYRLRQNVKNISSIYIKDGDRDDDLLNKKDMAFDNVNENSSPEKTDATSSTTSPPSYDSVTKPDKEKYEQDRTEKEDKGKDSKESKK
Compound,"inhibition in vivo at 10 mg/kg [1, 4]","pIC50 [2, 5]","pIC50 [3, 6]","inhibition in vivo at 30 mg/kg [1, 7]",other results
"O=C(c1ccc2cc(Oc3ccc(C(F)(F)F)cn3)ccc2n1)N1CCNC(C(F)(F)F)C1 (stereo not drawn) [Example 20, [3-(trifluoromethyl)piperazin-1-yl](6-{[5-(trifluoromethyl)pyridin-2-yl]oxy}quinolin-2-yl)methanone]",24%,4.98,5.49,,
"O=C(c1ccc2cc(Oc3ccc(C(F)(F)F)cn3)ccc2n1)N1CCNCC1C(F)F (single isomer, unassigned) [Example 72, [(2S*)-2-(difluoromethyl)piperazin-1-yl](6-{[5-(trifluoromethyl)pyridin-2-yl]oxy}quinolin-2-yl)methanone]",,,5.42,11%,pIC50 ([2]; FRET-Membrane Potential Nav1.7 IC50): 5.56
"O=C(c1ccc2cc(Oc3ccc(C(F)(F)F)cn3)ccc2n1)N1CCN(C2CCC2)CC1 [Example 47, (4-cyclobutylpiperazin-1-yl)(6-{[5-(trifluoromethyl)pyridin-2-yl]oxy}quinolin-2-yl)methanone]",30%,,6.48,,"pIC50 [2, 8]: 5.85"
"CC[C@@H]1CN(C(=O)c2ccc3cc(Oc4ccc(C(F)F)cn4)ccc3n2)CCN1 [Example 55, (6-{[5-(difluoromethyl)pyridin-2-yl]oxy}quinolin-2-yl)[(3R)-3-ethylpiperazin-1-yl]methanone]",42%,6.23,,,pIC50 [3]: 5.68
"COC[C@H]1CN(C(=O)c2ccc3cc(Oc4ccc(C(F)F)cn4)ccc3n2)CCN1 [Example 71, (6-{[5-(difluoromethyl)pyridin-2-yl]oxy}quinolin-2-yl) [(3R)-3-(methoxymethyl)piperazin-1-yl]methanone]",33%,5.74,5.79,,
"CCN1CC(NC(=O)c2ccc3cc(Oc4ccc(C(F)(F)F)cn4)ccc3n2)CC1=O (stereo not drawn) [Example 45, N-(1-ethyl-5-oxopyrrolidin-3-yl)-6-{[5-(trifluoromethyl)pyridin-2-yl]oxy}quinoline-2-carboxamide]",,6.49,6.33,17%,
"O=C(c1ccc2cc(Oc3ccc(C(F)(F)F)cn3)ccc2n1)N1CCNCC1C(F)F (stereo not drawn) [Example 25, [2-(difluoromethyl)piperazin-1-yl](6-{[5-(trifluoromethyl)pyridin-2-yl]oxy}quinolin-2-yl)methanone]",,,5.42,102%,"pIC50 [2, 8]: 5.76"
"CC1CN(C(=O)c2ccc3cc(Oc4ccc(C(F)F)cn4)ccc3n2)CC(C)N1 (stereo not drawn) [Example 67, (6-{[5-(difluoromethyl)pyridin-2-yl]oxy}quinolin-2-yl)(3,5-dimethylpiperazin-1-yl)methanone]",43%,5.89,5.76,,
"COCCNC(=O)c1ccc2cc(Oc3ccc(C(F)(F)F)nc3)ccc2n1 [Example 56, N-(2-methoxyethyl)-6-{[6-(trifluoromethyl)pyridin-3-yl]oxy}quinoline-2-carboxamide]",43%,5.52,5.83,,
"CCN1CC(NC(=O)c2ccc3cc(Oc4ccc(C(F)F)cn4)ccc3n2)CC1=O (stereo not drawn) [Example 46, 6-{[5-(difluoromethyl)pyridin-2-yl]oxy}-N-(1-ethyl-5-oxopyrrolidin-3-yl)quinoline-2-carboxamide]",,6.46,6.30,98%,
"N[C@@H]1[C@H]2CN(C(=O)c3ccc4cc(Oc5ccc(C(F)F)cn5)ccc4n3)C[C@@H]12 [Example 49, meso-[(1R,5S,6s)-6-amino-3-azabicyclo[3.1.0]hex-3-yl](6-{[5-(difluoromethyl)pyridin-2-yl]oxy}quinolin-2-yl)methanone]",,5.64,6.15,,"OA MPE [1, 7]: 58%"
"O=C(c1ccc2cc(Oc3ccc(OC(F)F)cn3)ccc2n1)N1CCNCC1 [Example 57, (6-{[5-(difluoromethoxy)pyridin-2-yl]oxy}quinolin-2-yl)(piperazin-1-yl)methanone]",,5.50,6.06,53%,
"COC[C@@H]1CN(C(=O)c2ccc3cc(Oc4ccc(C(F)F)cn4)ccc3n2)CCN1 [Example 69, (6-{[5-(difluoromethyl)pyridin-2-yl]oxy}quinolin-2-yl)[(3S)-3-(methoxymethyl)piperazin-1-yl]methanone]",2%,6.05,5.63,,
"O=C(c1ccc2cc(Oc3ccc(C(F)(F)F)cn3)ccc2n1)N1CC(OCC(F)F)C1 [Example 619, [3-(2,2-difluoroethoxy)azetidin-1-yl](6-{[5-(trifluoromethyl)pyridin-2-yl]oxy}quinolin-2-yl)methanone]",,5.54,5.54,53%,
"O=C(c1ccc2cc(Oc3ccc(C(F)(F)F)cn3)ccc2n1)N1CCC12COC2 [Example 505, 6-oxa-1-azaspiro[3.3]hept-1-yl(6-{[5-(trifluoromethyl)pyridin-2-yl]oxy}quinolin-2-yl)methanone]",,5.31,5.64,,inhibition in vivo at 30 mg/kg [1]: 52%
"O=C(c1ccc2cc(Oc3ccc(C(F)(F)F)cn3)ccc2n1)N1CC(N2CC[C@@H](F)C2)C1 [Example 70, {3-[(3R)-3-fluoropyrrolidin-1-yl]azetidin-1-yl}(6-{[5-(trifluoromethyl)pyridin-2-yl]oxy}quinolin-2-yl)methanone]",23%,,,,"pIC50 [2, 8]: 5.90; pIC50 [3]: 6.09"
"CC1(NC(=O)c2ccc3cc(Oc4ccc(C(F)(F)F)cn4)ccc3n2)COC1 [Example 48, N-(3-methyloxetan-3-yl)-6-{[5-(trifluoromethyl)pyridin-2-yl]oxy}quinoline-2-carboxamide]",41%,5.35,6.11,,
"CN1CC(NC(=O)c2ccc3cc(Oc4ccc(C(F)(F)F)cn4)ccc3n2)CC1=O (single isomer, unassigned) [Example 73, N-[(3R*)-1-methyl-5-oxopyrrolidin-3-yl]-6-{[5-(trifluoromethyl)pyridin-2-yl]oxy}quinoline-2-carboxamide]",,5.84,5.77,66%,
"O=C(c1ccc2cc(Oc3ccc(C(F)(F)F)nc3)ccc2n1)N1CCNCC1 [Example 19, piperazin-1-yl(6-{[6-(trifluoromethyl)pyridin-3-yl]oxy}quinolin-2-yl)methanone]",,5.90,5.40,64%,
"O=C(c1ccc2cc(Oc3ccc(C(F)(F)F)cn3)ccc2n1)N1CCN(CCO)CC1 [Example 28, [4-(2-hydroxyethyl)piperazin-1-yl](6-{[5-(trifluoromethyl)pyridin-2-yl]oxy}quinolin-2-yl)methanone]",16%,5.51,5.37,,
"C[C@@H]1CN(C(=O)c2ccc3cc(Oc4ccc(C(F)F)cn4)ccc3n2)CCN1 [Example 68, (6-{[5-(difluoromethyl)pyridin-2-yl]oxy}quinolin-2-yl) [(3R)-3-methylpiperazin-1-yl]methanone]",52%,5.92,5.72,,
"COC[C@H]1CN(C(=O)c2ccc3cc(Oc4ccc(C(F)(F)F)nc4)ccc3n2)CCN1 [Example 63, [(3R)-3-(methoxymethyl)piperazin-1-yl](6-{[6-(trifluoromethyl)pyridin-3-yl]oxy}quinolin-2-yl)methanone]",15%,6.01,,,pIC50 [3]: 5.94
"N[C@@H]1[C@H]2CN(C(=O)c3ccc4cc(Oc5ccc(C(F)(F)F)cn5)ccc4n3)C[C@@H]12 [Example 36, meso-[(1R,5S,6s)-6-amino-3-azabicyclo[3.1.0]hex-3-yl](6-{[5-(trifluoromethyl)pyridin-2-yl]oxy}quinolin-2-yl)methanone]",,6.14,5.85,,"OA MPE [1, 4]: 55%"
